Measurements published in PMC11124413, “Synthesis, Antibacterial Effects, and Toxicity of Licochalcone C” (Pharmaceuticals, 2024).
≈ marks a conversion by molar mass, not a printed value. Read-outs that look alike come from different tables or passages of the source.

Columns and labels:
MSSA (ATCC 6538) = assay: MIC, broth microdilution with resazurin; type: cell-based; conditions: Staphylococcus aureus (MSSA), mean of triplicates
MRSA (ATCC BAA44) = assay: MIC, broth microdilution with resazurin; type: cell-based; conditions: Staphylococcus aureus (MRSA), mean of triplicates
[1] = test system: S. epidermidis (ATCC 14990); assay: MIC, broth microdilution with resazurin; type: cell-based; conditions: ATCC14990; Staphylococcus epidermidis; mean of triplicates
E. faecalis (ATCC 1299) = assay: MIC, broth microdilution with resazurin; type: cell-based; conditions: ATCC1299; Enterococcus faecalis; mean of triplicates
[2] = test system: S. pneumoniae (ATCC 6305); assay: MIC, broth microdilution with resazurin; type: cell-based; conditions: ATCC6305; Streptococcus pneumoniae; mean of triplicates
[3] = test system: S. sanguinis (ATCC 10556); assay: MIC, broth microdilution with resazurin; type: cell-based; conditions: ATCC10556; Streptococcus sanguinis; mean of triplicates
S. sobrinus (ATCC 33478) = assay: MIC, broth microdilution with resazurin; type: cell-based; conditions: ATCC33478; Streptococcus sobrinus; mean of triplicates
S. mutans (ATCC 25175) = assay: MIC, broth microdilution with resazurin; type: cell-based; conditions: ATCC25175; Streptococcus mutans; mean of triplicates
[4] = test system: M. tuberculosis (ATCC 27294); assay: Antimycobacterial MIC, resazurin microtiter assay; type: cell-based; conditions: ATCC27294; Mycobacterium tuberculosis; mean of triplicates
M. avium (ATCC 25291) = assay: Antimycobacterial MIC, resazurin microtiter assay; type: cell-based; conditions: ATCC25291; Mycobacterium avium; mean of triplicates
M. kansasii (ATCC 12478) = assay: Antimycobacterial MIC, resazurin microtiter assay; type: cell-based; conditions: ATCC12478; Mycobacterium kansasii; mean of triplicates
H. pylori (ATCC 43526) = assay: MIC, broth microdilution with resazurin; type: cell-based; conditions: Helicobacter pylori, mean of triplicates
[5] = test system: P. aeruginosa (ATCC 27853); assay: MIC, broth microdilution with resazurin; type: cell-based; conditions: Pseudomonas aeruginosa, mean of triplicates
[6] = test system: K. pneumoniae (ATCC 23883); assay: MIC, broth microdilution with resazurin; type: cell-based; conditions: Klebsiella pneumoniae, mean of triplicates
[7] = test system: Escherichia coli (ATCC 25922); assay: MIC, broth microdilution with resazurin; type: cell-based
Gram-positive bacteria = assay: MIC, panel of Gram-positive bacteria; type: cell-based; conditions: all Gram-positive bacteria tested
MSSA biofilm = assay: Antibiofilm assay (biofilm formation); type: cell-based, S. aureus
MRSA biofilm = assay: Antibiofilm assay (biofilm formation); type: cell-based, S. aureus
[8] = test system: Galleria mellonella larvae; assay: Systemic toxicity in Galleria mellonella larvae; type: in vivo
Experimental: The systemic toxicity assay was performed to evaluate the acute toxic effects of LCC, following the procedures described by Megaw [63]. For the experiment, 10 healthy larvae from G. mellonella were randomly selected for each concentration test, with a weight range between 0.2 g and 0.3 g and without melanization aspects. The larvae were chilled on ice for 20 min and had their prolegs cleaned with 70% ethanol. […] Five microliters of the solution were injected into the hemocoel of each larva through the last left proleg using a 25 µL Hamilton syringe. After the administration, the larvae were incubated at 37 °C and their survival was monitored in selected intervals over 72 h. The larvae unable to move when touched and showing elevated levels of melanization were counted as dead. Experiments were performed in triplicate.

NADH-oxidase = biological target: NADH-oxidase; design: method as in PMID 9621457; conditions: cited from earlier work
[9] = biological target: NADH-cytochrome c reductase; design: method as in PMID 9621457; conditions: cited from earlier work
NADH-CoQ reductase = biological target: NADH-CoQ reductase; design: method as in PMID 9621457; conditions: cited from earlier work
NADH-FMN oxidoreductase = biological target: NADH-FMN oxidoreductase; design: method as in PMID 9621457; conditions: cited from earlier work
[10] = test system: E. coli respiratory chain; design: method as in PMID 9621457; conditions: cited from earlier work
T24 (bladder) = test system: T24 (bladder); design: method as in PMID 26397392; conditions: at 45 µg/mL; cited from earlier work
MCF7 (breast) = test system: MCF7 (breast); design: method as in PMID 26397392; conditions: at 45 µg/mL; cited from earlier work
A549 (lung) = test system: A549 (lung); design: method as in PMID 26397392; conditions: at 45 µg/mL; cited from earlier work
HCT116 (colorectal) = test system: HCT116 (colorectal); design: method as in PMID 38148556; conditions: read-out: IC50 (proliferation); cited from earlier work
HepG2 (liver) = test system: HepG2 (liver); design: method as in PMID 32578448; conditions: read-out: IC50 (proliferation); cited from earlier work
HN22 (oral) = test system: HN22 (oral); design: method as in PMID 30129052; conditions: read-out: IC50 (proliferation); cited from earlier work
HSC4 (oral) = test system: HSC4 (oral); design: method as in PMID 30129052; conditions: read-out: IC50 (proliferation); cited from earlier work
KYSE 30 (esophageal) = test system: KYSE 30 (esophageal); design: method as in PMID 32009586; conditions: read-out: IC50 (proliferation); cited from earlier work
KYSE 70 (esophageal) = test system: KYSE 70 (esophageal); design: method as in PMID 32009586; conditions: read-out: IC50 (proliferation); cited from earlier work
KYSE 410 (esophageal) = test system: KYSE 410 (esophageal); design: method as in PMID 32009586; conditions: read-out: IC50 (proliferation); cited from earlier work
KYSE 510 (esophageal) = test system: KYSE 510 (esophageal); design: method as in PMID 32009586; conditions: read-out: IC50 (proliferation); cited from earlier work
Vero cells = test system: Vero cells; design: method as in PMID 31749783; conditions: cited from earlier work
[11] = test system: Staphylococcus aureus (ATCC 29213) membrane; assay: Membrane disruption assay, fluorescence microscopy with SYTO9 and propidium iodide; conditions: S. aureus; LCC at MIC 12.5 µg/mL, 15 min; nisin positive control
Experimental: Two fluorescent dyes propidium iodide (PI) and SYTO9 were added, which stain cells with disrupted membranes (in pink) and whole membranes (in blue).
The assay was performed using Staphylococcus aureus (ATCC 29213), an MSSA strain. Bacterial cells were cultivated in solid TSA broth (tryptone soya) at 36 °C and stirred at 200 rpm. […] Cells were stained with the Live/Dead BacLight Kit (Thermo-Scientific® L7012, Carlsbad, CA, USA), which is composed of two nucleic acid dyes: SYTO9, which stains all cells, and propidium iodide, which penetrates cells with damaged membranes [60]. The stained cells were immobilized on agarose-covered slides as described by Martins [61]. Untreated S. aureus cells with intact membranes were used as negative controls, and S. aureus cells exposed to nisin (Sigma-Aldrich® N5764, St. Louis, MO, USA) were used as positive controls for membrane damage [62]. Microscopic analyses were carried out using an Olympus BX-61 microscope, equipped with a monochromatic OrcaFlash-2.8 camera (Hamamatsu, Japan), and the software CellSens Dimension Version 11 (Olympus).

COc1c(/C=C/C(=O)c2ccc(O)cc2)ccc(O)c1CC=C(C)C [LCC, licochalcone C]
MIC (MSSA (ATCC 6538)): 12.5 µg/mL (≈ 36.9 µM)
MIC (MSSA (ATCC 6538); read-out: MIC): 12.5 µg/mL (≈ 36.9 µM)
MIC (MRSA (ATCC BAA44)): 12.5 µg/mL (≈ 36.9 µM)
MIC (MRSA (ATCC BAA44); read-out: MIC): 12.5 µg/mL (≈ 36.9 µM)
MIC [1]: 6.2 µg/mL (≈ 18.3 µM)
MIC (E. faecalis (ATCC 1299)): 50 µg/mL (≈ 148 µM)
MIC [2]: 50 µg/mL (≈ 148 µM)
MIC [3]: 6.2 µg/mL (≈ 18.3 µM)
MIC (S. sobrinus (ATCC 33478)): 12.5 µg/mL (≈ 36.9 µM)
MIC (S. mutans (ATCC 25175)): 12.5 µg/mL (≈ 36.9 µM)
MIC [4]: 31.2 µg/mL (≈ 92.2 µM)
MIC (M. avium (ATCC 25291)): 62.5 µg/mL (≈ 185 µM)
MIC (M. kansasii (ATCC 12478)): 125 µg/mL (≈ 369 µM)
MIC (H. pylori (ATCC 43526); ATCC43526, read-out: MIC): 25 µg/mL (≈ 73.9 µM)
MIC (H. pylori (ATCC 43526)): 25 µg/mL (≈ 73.9 µM)
MIC ([5]; ATCC27853, read-out: MIC): > 400 µg/mL
MIC [5]: >400 µg/mL
MIC ([6]; ATCC23883, read-out: MIC): > 400 µg/mL
MIC [6]: >400 µg/mL
MIC ([7]; ATCC25922, mean of triplicates, read-out: MIC): > 400 µg/mL
MIC ([7]; mean of triplicates): >400 µg/mL
MIC, range over Gram-positive bacteria (Gram-positive bacteria): 6.2 to 50.0 µg/mL
inhibition of biofilm formation (MSSA biofilm): 75%
MBIC50 (minimum biofilm inhibitory concentration) (MSSA biofilm; MSSA biofilm formation): 6.25 µg/mL
MBIC50 (minimum biofilm inhibitory concentration) (MRSA biofilm; MRSA biofilm formation): 6.25 µg/mL
inhibition of biofilm formation (MRSA biofilm; MRSA, at MBIC50 (6.25 μg/mL)): 87%
lethality to larvae ([8]; 100 µg/mL after 80 h treatment): not lethal
larvae survival ([8]; LCC at 12.5, 25, 50, and 100 µg/mL, over a period of 72 h): 100%
IC50 (NADH-oxidase): 3000 nM
IC50 [9]: 29.6 µM
IC50 (NADH-CoQ reductase): > 100 µM
IC50 (NADH-FMN oxidoreductase): > 100 µM
inhibition of respiratory chain [10]: did not inhibit
proliferation inhibition (T24 (bladder)): 68%
proliferation inhibition (MCF7 (breast)): 47%
proliferation inhibition (A549 (lung)): 40%
IC50 (HCT116 (colorectal)): 16.6 µM
IC50 (HepG2 (liver)): 50.8 µM
IC50 (HN22 (oral)): 23.8 µM
IC50 (HSC4 (oral)): 27.1 µM
IC50 (KYSE 30 (esophageal)): 28 µM
IC50 (KYSE 70 (esophageal)): 36 µM
IC50 (KYSE 410 (esophageal)): 19 µM
IC50 (KYSE 510 (esophageal)): 26 µM
IC50 (Vero cells): 27.7 µg/mL (≈ 81.9 µM)
percentage of cells with permeabilized membrane (stained with both fluorophores) [11]: 75%
